Reference: publication PMC8247900 (Clinical Pharmacology and Therapeutics, 2021)

Assays:
[1] = assay type: in vivo, human
CYP1A2 mRNA = experiment: Induction of CYP mRNA expression in HepaRG cells; assay type: cell-based, human; settings: 72 hours
CYP2B6 mRNA = experiment: Induction of CYP mRNA expression in HepaRG cells; assay type: cell-based, human; settings: 72 hours, 300 µM 4‐MAA, 10 µM rifampicin; for CYP2B6 mRNA induction in 5‐F cells: 5‐F control HepaRG cells, 1 µM CITCO
CYP2C9 mRNA = experiment: Induction of CYP mRNA expression in HepaRG cells; assay type: cell-based, human; settings: 5‐F control HepaRG cells, 72 hours; 300 µM 4‐MAA, 1 µM CITCO, 10 µM rifampicin
CYP2C19 mRNA = experiment: Induction of CYP mRNA expression in HepaRG cells; assay type: cell-based, human; settings: 72 hours, 300 µM 4‐MAA, 10 µM rifampicin; for CYP2C19 mRNA induction in 5‐F cells: 5‐F control HepaRG cells, 1 µM CITCO
CYP1A2 [2] = assay type: in vivo, human; settings: male, human, plasma, oral
CYP1A2 [3] = biological target: T1, CYP1A2 (Homo sapiens, UniProt P05177); experiment: Clinical phenotyping cocktail study: effect of metamizole on CYP1A2; assay type: in vivo
T1 sequence (P05177 1-516): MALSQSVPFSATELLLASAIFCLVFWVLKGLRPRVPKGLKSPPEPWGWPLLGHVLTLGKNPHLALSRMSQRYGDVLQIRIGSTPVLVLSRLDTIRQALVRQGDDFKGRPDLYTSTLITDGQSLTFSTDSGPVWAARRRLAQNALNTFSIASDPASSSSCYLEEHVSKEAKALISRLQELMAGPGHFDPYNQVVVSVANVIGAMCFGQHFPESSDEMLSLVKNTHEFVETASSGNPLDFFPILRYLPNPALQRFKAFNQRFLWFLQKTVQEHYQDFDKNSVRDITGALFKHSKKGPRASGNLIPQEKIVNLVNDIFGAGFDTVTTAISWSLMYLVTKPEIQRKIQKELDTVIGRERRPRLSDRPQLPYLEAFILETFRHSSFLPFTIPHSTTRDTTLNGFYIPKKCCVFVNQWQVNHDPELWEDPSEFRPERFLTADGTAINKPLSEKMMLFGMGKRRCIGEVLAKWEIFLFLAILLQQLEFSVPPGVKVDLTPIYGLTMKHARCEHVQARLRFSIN

CYP2B6 [4] = experiment: Clinical phenotyping cocktail study: effect of metamizole on CYP2B6; assay type: in vivo, human; settings: 3 g of metamizole per day for 1 week
CYP2C9 = experiment: Clinical phenotyping cocktail study: effect of metamizole on CYP2C9; assay type: in vivo, human; settings: 3 g of metamizole per day for 1 week
CYP2C19 = experiment: Clinical phenotyping cocktail study: effect of metamizole on CYP2C19; assay type: in vivo, human; settings: 3 g of metamizole per day for 1 week
CYP2D6 = experiment: Clinical phenotyping cocktail study: effect of metamizole on CYP2D6; assay type: in vivo, human
CYP3A4 = experiment: Clinical phenotyping cocktail study: effect of metamizole on CYP3A4; assay type: in vivo, human; settings: 3 g of metamizole per day for 1 week
CYP2B6 [5] = settings: healthy volunteers, 1.5 g metamizole per day for 4 days; cited from earlier work
[6] = retrospective study, patients treated with metamizole; cited from earlier work
[7] = patients after organ transplantation; cited from earlier work
CYP2D6 mRNA = experiment: Induction of CYP mRNA expression in HepaRG cells; assay type: cell-based, human; settings: differentiated HepaRG cells, 72 hours; 300 µM 4‐MAA; 2 mM metformin
[8] = clinical study, 3 g of metamizole per day for 1 week
[9] = differentiated HepaRG cells, vs DMSO control

Question: Which AUC(0-inf) ([1]; male, human, plasma, oral) does the source give for `CC(C(=O)O)c1ccc(-c2ccc(O)cc2)c(F)c1` (centres unmarked) [4′‐hydroxyflurbiprofen] here?
Answer: 726 ng·h/mL

Question: Which “CYP1A2 mRNA induction in 5‐F cells” value (CYP1A2 mRNA; 5‐F control HepaRG cells, 1 µM CITCO) does the source give for `Clc1ccc(-c2nc3sccn3c2C=NOCc2ccc(Cl)c(Cl)c2)cc1` [CITCO, 6‐(4‐chlorophenyl)imidazo[2,1‐b][1,3]thiazole‐5‐carbaldehyde O‐(3,4‐dichlorobenzyl)oxime] here?
Answer: induced

Question: What about the “CYP1A2 mRNA induction in HepaRG cells lacking CAR” value (CYP1A2 mRNA; CAR‐knockout HepaRG cells, 1 µM CITCO) of the same compound?
Answer: still induced

Question: What about the “CYP2B6 mRNA induction in 5‐F cells” value (CYP2B6 mRNA) of the same compound?
Answer: induced

Question: And the “CYP2C9 mRNA induction in 5‐F cells” value (CYP2C9 mRNA)?
Answer: not significant

Question: And the “CYP2C19 mRNA induction in 5‐F cells” value (CYP2C19 mRNA)?
Answer: induced

Question: And the “CYP3A4 mRNA induction in 5‐F cells” value (CYP3A4 mRNA)?
Answer: not significant

Question: Which AUC(0-inf) ([1]; male, human, plasma, oral) does the source give for `Cn1c(=O)c2c(ncn2C)n(C)c1=O` [Caffeine, caffeine] here?
Answer: 7210 ng·h/mL

Question: Which “Basal metabolic ratio in CYP2B6 NM” value ([1]; basal state, CYP2B6 *1/*1 carriers (normal metabolizers, four subjects)) does the source give for `O=C1Nc2ccc(Cl)cc2[C@@](C#CC2CC2)(C(F)(F)F)O1` [Efavirenz, efavirenz] here?
Answer: 96.3

Question: And the “Basal metabolic ratio in CYP2B6 IM” value ([1]; basal state, CYP2B6 *1/*6 carriers (intermediate metabolizers, eight subjects))?
Answer: 87.5

Question: What about the AUC(0-inf) ([1]; male, human, plasma, oral) of the same compound?
Answer: 3980 ng·h/mL

Question: Which AUC(0-inf) ([1]; male, human, plasma, oral) does the source give for `CC(C(=O)O)c1ccc(-c2ccccc2)c(F)c1` (centres unmarked) [Flurbiprofen, flurbiprofen] here?
Answer: 10000 ng·h/mL

Question: With `COCCc1ccc(OCC(O)CNC(C)C)cc1` (centres unmarked) [Metoprolol, metoprolol] as the compound, how does the AUC(0-inf) ([1]; male, human, plasma, oral) read?
Answer: 41.4 ng·h/mL

Question: Which AUC(0-inf) ([1]; male, human, plasma, oral) does the source give for `Cc1ncc2n1-c1ccc(Cl)cc1C(c1ccccc1F)=NC2` [Midazolam, midazolam] here?
Answer: 19.7 ng·h/mL

Question: What about the half-life ([1]; male, human, plasma, oral) of the same compound?
Answer: 2.44 h

Question: For `COc1ccc2[nH]c([S+]([O-])Cc3ncc(C)c(OC)c3C)nc2c1` (centres unmarked) [Omeprazole, omeprazole], which AUC(0-inf) ([1]; male, human, plasma, oral) is on record?
Answer: 187 ng·h/mL

Question: For `Cn1c(=O)[nH]c2ncn(C)c2c1=O` [Paraxanthine, paraxanthine], which AUC(0-inf) ([1]; male, human, plasma, oral) is on record?
Answer: 4680 ng·h/mL

Question: What about the AUC(0-inf) (CYP1A2 [2]) of the same compound?
Answer: 4620 ng·h/mL

Question: For `Cc1c(N(C)CS(=O)(=O)O)c(=O)n(-c2ccccc2)n1C` [metamizole, Metamizole], which “effect on CYP1A2 activity” value (CYP1A2 [3]; [8]) is on record?
Answer: weakly inhibited

Question: And the “change in caffeine:paraxanthine MR” value (CYP1A2 [3]; metamizole 3 × 1 g per day for 7 days, P = 0.0024)?
Answer: significant increase

Question: And the “effect on CYP2B6 activity” value (CYP2B6 [4])?
Answer: moderate induction

Question: And the “effect on CYP2C9 activity” value (CYP2C9)?
Answer: weakly induced

Question: What about the “effect on CYP2C19 activity” value (CYP2C19) of the same compound?
Answer: moderately

Question: What about the “effect on CYP2D6 activity” value (CYP2D6; [8]) of the same compound?
Answer: did not alter

Question: And the “change in the MR of metoprolol” value (CYP2D6; metamizole 3 × 1 g per day for 7 days)?
Answer: no significant change

Question: What about the “effect on CYP3A4 activity” value (CYP3A4) of the same compound?
Answer: moderate induction

Question: What about the “increase in the bupropion hydroxylase activity” value (CYP2B6 [5]) of the same compound?
Answer: 2.1 fold

Question: What about the “lower sertraline plasma concentrations than patients without metamizole” value [6] of the same compound?
Answer: 67%

Question: What about the “effect on cyclosporine blood concentrations” value [7] of the same compound?
Answer: decreased

Question: What does the source list for `CN(C)C(=N)N=C(N)N` [metformin]?
Answer: effect on CYP1A2 mRNA (CYP1A2 mRNA; differentiated HepaRG cells, 300 µM 4‐MAA, 2 mM metformin): suppressed; effect on CYP2D6 mRNA (CYP2D6 mRNA): not significantly affected

Question: With `CO[C@H]1/C=C/O[C@@]2(C)Oc3c(C)c(O)c4c(O)c(c(/C=N/N5CCN(C)CC5)c(O)c4c3C2=O)NC(=O)/C(C)=C\C=C\[C@H](C)[C@H](O)[C@@H](C)[C@@H](O)[C@@H](C)[C@H](OC(C)=O)[C@@H]1C` [rifampicin] as the compound, how does the “CYP2B6 mRNA induction in 5‐F cells” value (CYP2B6 mRNA) read?
Answer: not significant

Question: And the “increase of CYP2B6 mRNA content” value (CYP2B6 mRNA; [9])?
Answer: 4.3 fold

Question: What about the “CYP2C19 mRNA induction in 5‐F cells” value (CYP2C19 mRNA) of the same compound?
Answer: increased

Question: And the “increase of CYP2C19 mRNA content” value (CYP2C19 mRNA; [9])?
Answer: 2.2 fold
